The results in this text go back to patent US20260007756A1, “COMPOUND AND USE THEREOF” (COHERENT BIOPHARMA (SUZHOU) LIMITED, priority 2022, published 2026).

One assay deals with 22RV1. Type of assay: cell-based, human. The following applies: 22RV1, 72 h, CellTiter-Glo. The source says: (§1) Negative and blank controls were set.
On the technique in general: Cellular ATP, detected with luciferase, serves as a proxy for viable cell number.

A further assay deals with MDA-MB-231. Type of assay: cell-based, human. The settings on record: MDA-MB-231, 72 h, CellTiter-Glo.
From the text: as §1

As a reminder, the IC50 is the concentration that gives 50% inhibition. A lower IC50 goes with greater potency. For `CC[C@@H]1C(=O)N(C)c2cnc(Nc3ccc(-c4cn([C@H]5CC[C@@H](N(CCOCCC#Cc6cccc7c6CN(C6CCC(=O)NC6=O)C7=O)C(=O)OCc6ccc(NC(=O)[C@H](CCCNC(N)=O)NC(=O)[C@@H](NC(=O)OCCOCCNS(=O)(=O)NC(=O)OCCn7cc(C[C@H](NC(=O)[C@H](CCCCN)NC(=O)[C@H](CC(=O)O)NC(=O)[C@H](CC(=O)O)NC(=O)Cc8ccc(CNC(=O)NCCCC[C@H](NC(=O)N[C@@H](CCC(=O)O)C(=O)O)C(=O)O)cc8)C(=O)N[C@@H](CCCCNC(=O)CC[C@H](NC(=O)c8ccc(NCc9cnc%10[nH]c(N)nc(=O)c%10n9)cc8)C(=O)O)C(N)=O)nn7)C(C)C)cc6)CC5)nn4)cc3OC)nc2N1C1CCCC1` (stereo partly shown) [CR202GM], the values for the IC50 in the assay with 22RV1 and in the assay with MDA-MB-231 were 287 nM and 512 nM, respectively.

For the compound `CC[C@@H]1C(=O)N(C)c2cnc(Nc3ccc(-c4cn([C@H]5CC[C@@H](N(CCOCCC#Cc6cccc7c6CN(C6CCC(=O)NC6=O)C7=O)C(=O)CNC(=O)[C@@H]6CCCN6C(=O)[C@H](CCCNC(N)=O)NC(=O)[C@@H](NC(=O)COCCOCCn6cc(C[C@H](NC(=O)[C@H](CCCCN)NC(=O)[C@H](CC(=O)O)NC(=O)[C@H](CC(=O)O)NC(=O)Cc7ccc(CNC(=O)NCCCC[C@H](NC(=O)N[C@@H](CCC(=O)O)C(=O)O)C(=O)O)cc7)C(=O)N[C@@H](CCCCNC(=O)CC[C@H](NC(=O)c7ccc(NCc8cnc9[nH]c(N)nc(=O)c9n8)cc7)C(=O)O)C(N)=O)nn6)C(C)C)CC5)nn4)cc3OC)nc2N1C1CCCC1` (stereo partly shown) [CR202GQ], the 50% inhibitory concentration (IC50) in the assay on 22RV1 is 3160 nM; in the assay on MDA-MB-231 it was 4480 nM.

With `CC[C@@H]1C(=O)N(C)c2cnc(Nc3ccc(-c4cn([C@H]5CC[C@@H](N(CCOCCC#Cc6cccc7c6CN(C6CCC(=O)NC6=O)C7=O)C(=O)OC[C@@H](C)SSC[C@H](NC(=O)[C@H](CCCCN)NC(=O)[C@H](CC(=O)O)NC(=O)[C@H](CC(=O)O)NC(=O)Cc6ccc(CNC(=O)NCCCC[C@H](NC(=O)N[C@@H](CCC(=O)O)C(=O)O)C(=O)O)cc6)C(=O)N[C@@H](CCCCNC(=O)CC[C@H](NC(=O)c6ccc(NCc7cnc8[nH]c(N)nc(=O)c8n7)cc6)C(=O)O)C(N)=O)CC5)nn4)cc3OC)nc2N1C1CCCC1` (stereo partly shown) [CR202HV], the 50% inhibitory concentration (IC50) in the assay with 22RV1 amounted to 155 nM; in the assay with MDA-MB-231 it was 14.2 nM.

`CC[C@@H]1C(=O)N(C)c2cnc(Nc3ccc(-c4cn([C@H]5CC[C@@H](N(CCOCCC#Cc6cccc7c6CN(C6CCC(=O)NC6=O)C7=O)C(=O)OCc6ccc(NC(=O)[C@H](CCCNC(N)=O)NC(=O)[C@@H](NC(=O)COCCOCCn7cc(C[C@H](NC(=O)[C@H](CCCCN)NC(=O)[C@H](CC(=O)O)NC(=O)[C@H](CC(=O)O)NC(=O)Cc8ccc(CNC(=O)NCCCC[C@H](NC(=O)N[C@@H](CCC(=O)O)C(=O)O)C(=O)O)cc8)C(=O)N[C@@H](CCCCNC(=O)CC[C@H](NC(=O)c8ccc(NCc9cnc%10[nH]c(N)nc(=O)c%10n9)cc8)C(=O)O)C(N)=O)nn7)C(C)C)c(OC)c6)CC5)nn4)cc3OC)nc2N1C1CCCC1` (stereo partly shown) [CR202FU]: the results for the IC50 in the assay on 22RV1 and in the assay on MDA-MB-231 were 469 nM and 792 nM, respectively.

As to `CC[C@@H]1C(=O)N(C)c2cnc(Nc3ccc(-c4cn([C@H]5CC[C@@H](N(CCOCCC#Cc6cccc7c6CN(C6CCC(=O)NC6=O)C7=O)C(=O)NCCNC(=O)OCc6ccc(NC(=O)[C@H](CCCNC(N)=O)NC(=O)[C@@H](NC(=O)COCCOCCn7cc(C[C@H](NC(=O)[C@H](CCCCN)NC(=O)[C@H](CC(=O)O)NC(=O)[C@H](CC(=O)O)NC(=O)Cc8ccc(CNC(=O)NCCCC[C@H](NC(=O)N[C@@H](CCC(=O)O)C(=O)O)C(=O)O)cc8)C(=O)N[C@@H](CCCCNC(=O)CC[C@H](NC(=O)c8ccc(NCc9cnc%10[nH]c(N)nc(=O)c%10n9)cc8)C(=O)O)C(N)=O)nn7)C(C)C)cc6)CC5)nn4)cc3OC)nc2N1C1CCCC1` (stereo partly shown) [CR202HJ], the IC50 in the assay on 22RV1 was determined as 1220 nM; in the assay on MDA-MB-231, 3650 nM.
